Results on two molecules are retold here after ChEMBL document CHEMBL4387705, “Synthesis of new arylsulfonylspiroimidazolidine-2',4'-diones and study of their effect on stimulation of insulin release from MIN6 cell line, inhibition of human aldose reductase, sorbitol accumulations in various tissues and oxidative stress” (Eur J Med Chem, 2019).

Calls of active or inactive are those of the source. The rule behind the calls is not given here.

In data set [1] the test system is MIN6. The data set can be described thus: Cytotoxicity against mouse MIN6 cells assessed as reduction in cell viability up to 200 uM incubated for 24 hrs by MTT assay. The class given is cell-based. The note with it: min6, 24 h. (In general: Tetrazolium dyes change colour on reduction, which living cells bring about.)
Data set [2] can be described thus: Cytotoxicity against mouse MIN6 cells assessed as cell viability at 400 uM incubated for 24 hrs by MTT assay. The class given is cell-based. The note with it: read-out: Activity.
The subject of data set [3] is MIN6. Put plainly: Antidiabetic activity in mouse MIN6 cells after 35 passages assessed as increase in insulin secretion at 100 uM in presence of 25 mM glucose by ELISA relative to control. Format: functional. In general terms: ELISA stands for enzyme-linked immunosorbent assay.
Data set [4] concerns MIN6. Put plainly: Antidiabetic activity in mouse MIN6 cells after 83 passages assessed as increase in insulin secretion at 100 uM in presence of 25 mM glucose by ELISA relative to control. Format: functional.
Data set [5] concerns the target T1, Aldo-keto reductase family 1 member B1 (Homo sapiens, UniProt P15121). The data set can be described thus: Inhibition of human recombinant ALR2 expressed in Escherichia coli using DL-glyceraldehyde as substrate and NADPH preincubated for 5 mins followed by substrate addition and measured after 30 mins at 2 mins interval by spectrophotometry relative to control.

For data set [6], the target named is Aldo-keto reductase family 1 member A1 (Rattus norvegicus, UniProt P51635). The data set can be described thus: Inhibition of rat kidney ALR1 using DL-glyceraldehyde as substrate and NADPH preincubated for 5 mins followed by substrate addition and measured for 30 mins at 2 mins interval by spectrophotometry relative to control.
Data set [7] in a line: Selectivity ratio of IC50 for rat kidney ALR1 IC50 to IC50 for human recombinant ALR2.
In data set [8] the target is Aldo-keto reductase family 1 member B1 (Rattus norvegicus) (UniProt P07943). Put plainly: (§1) Inhibition of ALR2 in rat erythrocytes assessed as reduction in sorbitol accumulation incubated for 3 hrs in presence of 28 mM glucose by gas chromatographic analysis relative to control. Format: cell-based.
Data set [9] concerns the target T2, Aldo-keto reductase family 1 member B1 (Rattus norvegicus, UniProt P07943). Described as §1. The class given is cell-based.
The target of data set [10] is Aldo-keto reductase family 1 member B1 (Rattus norvegicus) (UniProt P07943). Put plainly: (§2) Inhibition of ALR2 in rat sciatic nerve assessed as reduction in sorbitol accumulation incubated for 3 hrs in presence of 28 mM glucose by gas chromatographic analysis.
Data set [11] deals with T2, Aldo-keto reductase family 1 member B1. The description is as §2.
In data set [12] the target is Aldo-keto reductase family 1 member B1 (Rattus norvegicus) (UniProt P07943). The data set can be described thus: (§3) Inhibition of ALR2 in rat lens assessed as reduction in sorbitol accumulation incubated for 3 hrs in presence of 28 mM glucose by gas chromatographic analysis relative to control.
The target of data set [13] is T2, Aldo-keto reductase family 1 member B1. The description is as §3.
The target of data set [14] is T1, Aldo-keto reductase family 1 member B1. The data set can be described thus: Uncompetitive Inhibition of ALR2 (unknown origin) using varying level of D,L-glyceraldehyde as substrate at 10 uM in presence of NADPH by Lineweaver-Burk plot analysis.
Data set [15] has the same target. The data set can be described thus: Uncompetitive Inhibition of ALR2 (unknown origin) using fixed level of D,L-glyceraldehyde as substrate at 10 uM in presence of varying level of NADPH by Lineweaver-Burk plot analysis.
The target is the same in data set [16]. Put plainly: Non-competitive Inhibition of ALR2 (unknown origin) using fixed level of D,L-glyceraldehyde as substrate at 20 uM in presence of varying level of NADPH by Lineweaver-Burk plot analysis.
Data set [17] in a line: Antioxidant activity assessed as DPPH radical scavenging activity at 10 uM incubated for 30 mins under dark condition by spectrophotometry. Format: functional.
Data set [18] in a line: Antioxidant activity assessed as DPPH radical scavenging activity at 50 uM incubated for 30 mins under dark condition by spectrophotometry. The class given is functional.
Data set [19] is described as follows: Antioxidant activity assessed as DPPH radical scavenging activity at 100 uM incubated for 30 mins under dark condition by spectrophotometry. The class given is functional. In general terms: DPPH is a stable violet radical that fades when it is reduced.
A short description of data set [20]: Cytotoxicity against HEK293 cells assessed as reduction in cell viability at 25 uM incubated for 48 hrs by MTT assay relative to control. The class given is cell-based. The note with it: human, read-out: INH.
Data set [21] in a line: Cytotoxicity against HEK293 cells assessed as reduction in cell viability at 50 uM incubated for 48 hrs by MTT assay relative to control. The class given is cell-based. The note with it: human, read-out: INH.
Data set [22] is described as follows: Cytotoxicity against HEK293 cells assessed as reduction in cell viability at 100 uM incubated for 48 hrs by MTT assay relative to control. The class given is cell-based. The note with it: human, read-out: INH.
Data set [23] can be described thus: Cytotoxicity against HEK293 cells assessed as reduction in cell viability at 200 uM incubated for 48 hrs by MTT assay relative to control. The class given is cell-based. The note with it: human, read-out: INH.
In data set [24] the test system is Mus musculus. The data set can be described thus: Antihyperglycemic activity in alloxanized BALB/c mouse assessed as reduction in blood glucose level at 150 mg/kg, po measured after 8 hrs relative to control. The class given is functional.
In data set [25] the test system is MIN6. Put plainly: Effect on cell morphology in mouse MIN6 cells assessed as cell viability up to 400 uM incubated for 24 hrs. Format: cell-based. The note with it: min6, 24 h.
Data set [26] has as its target T1, Aldo-keto reductase family 1 member B1. The data set can be described thus: Non-competitive Inhibition of ALR2 (unknown origin) using varying level of D,L-glyceraldehyde as substrate at 20 uM in presence of NADPH by Lineweaver-Burk plot analysis.
The subject of data set [27] is CC(C)c1ccc(S(=O)(=O)N2C(=O)NC(=O)C23CCCc2ccccc23)cc1. Put plainly: Uncompetitive Inhibition of ALR2 (unknown origin) assessed as substrate Km using varying level of D,L-glyceraldehyde as substrate at 10 uM in presence of NADPH by Lineweaver-Burk plot analysis (reference value: 0.585 mM). The note with it: Homo sapiens.

Sequence of Aldo-keto reductase family 1 member A1 (P51635 whole entry, looked up): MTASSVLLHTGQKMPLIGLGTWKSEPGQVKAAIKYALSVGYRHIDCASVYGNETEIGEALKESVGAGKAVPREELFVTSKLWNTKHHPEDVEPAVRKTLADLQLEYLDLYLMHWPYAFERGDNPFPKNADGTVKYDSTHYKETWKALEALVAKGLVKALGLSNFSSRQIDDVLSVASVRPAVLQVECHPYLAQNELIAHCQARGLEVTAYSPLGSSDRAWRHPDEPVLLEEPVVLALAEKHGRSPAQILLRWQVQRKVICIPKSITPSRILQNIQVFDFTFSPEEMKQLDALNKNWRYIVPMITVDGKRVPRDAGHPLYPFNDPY

`CC(C)c1ccc(S(=O)(=O)N2C(=O)NC(=O)C23CCCc2ccccc23)cc1` (configuration not stated): the Activity entry is listed as “Non-Toxic” in [1], 230% in data set [3], 192% in [4] and “Non-Toxic” in [25]. In addition, the viability at 24 h, 400 µM in [2] was 81%. The IC50 – broadly, the concentration that gives 50% inhibition – in data set [5] came to 560 nM; in [6], 68200 nM; in data set [9] it was 850 nM; in data set [11], 720 nM; in data set [13] it was 830 nM. Also, the Ratio IC50 in data set [7] was determined as 73.7. Also, the inhibition (as a rule, the relative decrease from the control value, in per cent) in data set [8] is “Dose-dependent effect”; in data set [10] it was “Dose-dependent effect”; in [12] it was “Dose-dependent effect”; in data set [17], 72.7%; in [18], 75.2%; in [19], 85.3%. Moreover, the inhibition result in [14], in data set [15], in data set [16] and in data set [26] was “Active” in each case. Further, the cytotoxicity at 48 h, 25 µM in data set [20] is 14.2%. Besides, the cytotoxicity at 48 h, 50 µM in data set [21] came out at 16.2%. Further, the cytotoxicity at 48 h, 100 µM in data set [22] turned out to be 16.1%. The cytotoxicity at 48 h, 200 µM in data set [23] came to 22.3%. Besides, the inhibition in vivo (in general, the change of the read-out against control, counted positive when it falls) at 150 mg/kg in data set [24] turned out to be 50.3%.

For the molecule “Aldo-keto reductase family 1 member B1 (Homo sapiens) (from UniProt P15121)”, in [27], the Km (in general, the concentration of substrate that gives half-maximal velocity) came out at 537 µM.
